Experiments:
[1] = system: Tel7 (DNA, G4) TTAGGGT; experiment: fluorescence titration; details: K+ (100 mM KCl, 10 mM potassium phosphate; quadruplex annealing buffer), pH 7.0, 25 °C; for Kd1: site 1 of 2
[2] = system: Tel22 (DNA, G4) AGGGTTAGGGTTAGGGTTAGGG; experiment: fluorescence titration; details: K+ (100 mM KCl, 10 mM potassium phosphate; quadruplex annealing buffer); pH 7.0, 25 °C; site 1 of 2
[3] = system: c-myc (DNA, G4) TGAGGGTGGTGAGGGTGGGGAAGG; experiment: fluorescence titration; details: K+ (100 mM KCl, 10 mM potassium phosphate; quadruplex annealing buffer); pH 7.0, 25 °C; site 1 of 2
[4] = system: Tel7 (DNA, G4) TTAGGGT; experiment: NMR titration, NOESY and restrained MD structure; details: K+; 298 K, H2O/D2O 9:1; stacks at T1pT2 and G6pT7; imino signals persist to 343 K versus lost at 323 K
[5] = system: c-kit21up (DNA, G4) CGGGCGGGCGCGAGGGAGGGG; experiment: fluorescence titration; details: K+ (100 mM KCl, 10 mM potassium phosphate; quadruplex annealing buffer); pH 7.0, 25 °C; single site

O=c1cc(-c2ccc(O)c(O)c2)oc2cc(O)cc(O)c12
Kd1 [1]: 23 nM

C[C@@H]1O[C@@H](OC[C@H]2O[C@@H](Oc3c(-c4ccc(O)c(O)c4)oc4cc(O)cc(O)c4c3=O)[C@H](O)[C@@H](O)[C@@H]2O)[C@H](O)[C@H](O)[C@H]1O
Kd1 [1]: 38 nM

O=c1c(-c2ccc(O)cc2)coc2cc(O)cc(O)c12
Kd ([1]; same value under Kd1 and Kd2 (single binding pattern)): 26.5 µM

O=c1c(O)c(-c2ccc(O)c(O)c2)oc2cc(O)cc(O)c12
Kd1 [2]: 30.2 nM
Kd1 [3]: 138 nM
binding [4]: yes
Kd1 [5]: 1.13 µM
Kd1 [1]: 4.9 nM
